{
  "source": "patent US20090233795A1",
  "about": "“Fungicidal Mixtres Based On 3-Monosubstituted N-Bipenyl-Pyrazolecarboxamides” (BASF Akitengesellschaft, priority 2005, published 2009)",
  "key": {"Pyrenophora teres": {"test_system": "Pyrenophora teres", "experiment": "Activity against net blotch of barley, 1 day protective application", "type": "in vivo, Pyrenophora [syn. Drechslera] teres", "settings": "sprayed 24 hours before inoculation, rated after 6 days"}, "Puccinia recondita [1]": {"test_system": "Puccinia recondita", "experiment": "Curative activity against brown rust of wheat", "type": "in vivo", "settings": "sprayed the day after inoculation, 7 days"}, "[2]": {"test_system": "Erysiphe [syn. Blumeria] graminis forma specialis. tritici", "experiment": "Activity against mildew of wheat", "type": "in vivo", "settings": "1 mg/l, sprayed 24 hours before inoculation, rated after 7 days"}, "Pyricularia oryzae": {"test_system": "Pyricularia oryzae", "type": "cell-based", "settings": "microtiter plate, 405 nm, day 7"}, "Septoria tritici": {"test_system": "Septoria tritici", "experiment": "Activity against the speckled leaf blotch pathogen in the microtiter test", "type": "cell-based", "settings": "microtiter plate, 405 nm, day 7"}, "Botrytis cinerea": {"test_system": "Botrytis cinerea", "experiment": "Activity against gray mold on bell pepper leaves, 1 day protective application", "type": "in vivo", "settings": "sprayed 1 day before inoculation, rated after 5 days"}, "Puccinia recondita [3]": {"test_system": "Puccinia recondita", "experiment": "Protective activity against brown rust of wheat", "type": "in vivo", "settings": "16 mg/l, sprayed the day before inoculation"}},
  "note": "Read-outs that look alike come from different tables or passages of the source.",
  "data": [
    {"compound": "COc1cc(C)c(C(=O)c2c(OC)ccc(Br)c2C)c(OC)c1OC", "note": "[metrafenone, 3′-bromo-2,3,4,6′-tetramethoxy-2′,6-dimethylbenzophenone]", "values": [
      {"measurement": "Observed activity (% infection)", "setting": "Pyrenophora teres; 16 mg/l", "value": 0, "unit": "%"},
      {"measurement": "Observed activity (% infection)", "setting": "Puccinia recondita [1]; 1 mg/l", "value": 0, "unit": "%"}
    ]},
    {"compound": "CC1(C)CC/C(=C\\c2ccc(Cl)cc2)C1(O)Cn1cncn1", "note": "(stereo not shown) [triticonazole, (5E)-5-[(4-chlorophenyl)methylene]-2,2-dimethyl-1-(1H-1,2,4-triazol-1-ylmethyl)cyclopentanol, reference compound]", "values": [
      {"measurement": "Observed activity (% infection)", "setting": "[2]", "value": 40, "unit": "%"}
    ]},
    {"compound": "Cn1cc(C(=O)Nc2ccccc2-c2cccc(Cl)c2)c(C(F)F)n1", "note": "[No. I.12, N-(3′-chlorobiphenyl-2-yl)-1-methyl-3-difluoromethyl-1H-pyrazole-4-carboxamide]", "values": [
      {"measurement": "melting point", "value": "110 to 112", "unit": "°C"}
    ]},
    {"compound": "Cn1cc(C(=O)Nc2ccccc2-c2cccc(C#N)c2)c(C(F)(F)F)n1", "note": "[No. I.5, 1-methyl-3-trifluoromethyl-N-(ortho-(3-cyanophenyl)phenyl)pyrazole-4-carboxamide]", "values": [
      {"measurement": "melting point", "value": "76 to 78", "unit": "°C"}
    ]},
    {"compound": "zinc ammoniate ethylenebis(dithiocarbamate) [metiram, reference compound]", "values": [
      {"measurement": "Observed activity (% infection)", "setting": "Pyricularia oryzae; 16 mg/l", "value": 52, "unit": "%"},
      {"measurement": "Observed activity (% infection)", "setting": "Septoria tritici; 1 mg/l", "value": 1, "unit": "%"}
    ]},
    {"compound": "Cn1cc(C(=O)Nc2ccccc2-c2cccc(F)c2)c(C(F)F)n1", "note": "[No. I.14, N-(3′-fluorobiphenyl-2-yl)-1-methyl-3-difluoromethyl-1H-pyrazole-4-carboxamide]", "values": [
      {"measurement": "melting point", "value": "130 to 135", "unit": "°C"}
    ]},
    {"compound": "Cn1cc(C(=O)Nc2ccccc2-c2cccc(Cl)c2)c(C(F)(F)F)n1", "note": "[No. I.1, N-(3′-chlorobiphenyl-2-yl)-1-methyl-3-trifluoromethyl-1H-pyrazole-4-carboxamide]", "values": [
      {"measurement": "Observed activity (% infection)", "setting": "Pyrenophora teres; 4 mg/l", "value": 26, "unit": "%"},
      {"measurement": "Observed activity (% infection)", "setting": "Pyricularia oryzae; 4 mg/l", "value": 0, "unit": "%"},
      {"measurement": "Observed activity (% infection)", "setting": "[2]", "value": 0, "unit": "%"},
      {"measurement": "Observed activity (% infection)", "setting": "Botrytis cinerea; 1 mg/l", "value": 0, "unit": "%"},
      {"measurement": "melting point", "value": "92 to 94", "unit": "°C"}
    ]},
    {"compound": "Cn1cc(C(=O)Nc2ccccc2-c2cccc(C(F)(F)F)c2)c(C(F)F)n1", "note": "[No. I.9, N-(3′-trifluoromethylbiphenyl-2-yl)-1-methyl-3-difluoromethyl-1H-pyrazole-4-carboxamide]", "values": [
      {"measurement": "Observed activity (% infection)", "setting": "Puccinia recondita [1]; 0.25 mg/l", "value": 11, "unit": "%"},
      {"measurement": "Observed activity (% infection)", "setting": "[2]", "value": 0, "unit": "%"},
      {"measurement": "melting point", "value": "124 to 125", "unit": "°C"}
    ]},
    {"compound": "Cc1nn(C)c(F)c1C(=O)Nc1ccccc1-c1cccc(C(F)(F)F)c1", "note": "[No. I.17, N-(3′-trifluoromethylbiphenyl-2-yl)-1,3-dimethyl-5-fluoro-1H-pyrazole-4-carboxamide]", "values": [
      {"measurement": "melting point", "value": "113 to 114", "unit": "°C"}
    ]},
    {"compound": "Cc1nn(C)c(F)c1C(=O)Nc1ccccc1-c1cccc([N+](=O)[O-])c1", "note": "[No. I.16, N-(3′-nitrobiphenyl-2-yl)-1,3-dimethyl-5-fluoro-1H-pyrazole-4-carboxamide]", "values": [
      {"measurement": "melting point", "value": "137 to 139", "unit": "°C"}
    ]},
    {"compound": "Fc1ccc([C@]2(Cn3cncn3)O[C@H]2c2ccccc2Cl)cc1", "note": "(racemic) [epoxiconazole, (2RS,3SR)-1-[3-(2-chlorophenyl)-2,3-epoxy-2-(4-fluorophenyl)propyl]-1H-1,2,4-triazole]", "values": [
      {"measurement": "Observed activity (% infection)", "setting": "Pyrenophora teres; 1 mg/l", "value": 0, "unit": "%"}
    ]},
    {"compound": "Cc1nn(C)c(F)c1C(=O)Nc1ccccc1-c1cccc(C#N)c1", "note": "[No. I.15, N-(3′-cyanobiphenyl-2-yl)-1,3-dimethyl-5-fluoro-1H-pyrazole-4-carboxamide]", "values": [
      {"measurement": "melting point", "value": "137 to 138", "unit": "°C"}
    ]},
    {"compound": "Cn1cc(C(=O)Nc2ccccc2-c2cccc(C(F)(F)F)c2)c(C(F)(F)F)n1", "note": "[No. I.4, N-(3′-trifluoromethylbiphenyl-2-yl)-1-methyl-3-trifluoromethyl-1H-pyrazole-4-carboxamide]", "values": [
      {"measurement": "Observed activity (% infection)", "setting": "Septoria tritici; 0.25 mg/l", "value": 20, "unit": "%"},
      {"measurement": "Observed activity (% infection)", "setting": "Puccinia recondita [3]", "value": 0, "unit": "%"},
      {"measurement": "melting point", "value": "132 to 134", "unit": "°C"}
    ]},
    {"compound": "COC(=O)N(OC)c1ccccc1COc1ccn(-c2ccc(Cl)cc2)n1", "note": "[pyraclostrobin, methyl N-{2-[1-(4-chlorophenyl)-1H-pyrazol-3-yloxymethyl]phenyl}(N-methoxy)carbamate, reference compound]", "values": [
      {"measurement": "Observed activity (% infection)", "setting": "[2]", "value": 40, "unit": "%"}
    ]},
    {"compound": "Cc1nn(C)cc1C(=O)Nc1ccccc1-c1cccc(Cl)c1", "note": "[No. I.10, N-(3′-chlorobiphenyl-2-yl)-1,3-dimethyl-1H-pyrazole-4-carboxamide]", "values": [
      {"measurement": "melting point", "value": "104 to 106", "unit": "°C"}
    ]},
    {"compound": "Cn1cc(C(=O)Nc2ccccc2-c2cccc(Cl)c2)c(CF)n1", "note": "[No. I.11, N-(3′-chlorobiphenyl-2-yl)-1-methyl-3-fluoromethyl-1H-pyrazole-4-carboxamide]", "values": [
      {"measurement": "melting point", "value": "96 to 99", "unit": "°C"}
    ]},
    {"compound": "Cn1cc(C(=O)Nc2ccccc2-c2cccc(F)c2)c(CF)n1", "note": "[No. I.13, N-(3′-fluorobiphenyl-2-yl)-1-methyl-3-fluoromethyl-1H-pyrazole-4-carboxamide]", "values": [
      {"measurement": "melting point", "value": "138 to 141", "unit": "°C"}
    ]},
    {"compound": "COc1ccc(C(=CC(=O)N2CCOCC2)c2ccc(Cl)cc2)cc1OC", "note": "[dimethomorph, 3-(4-chlorophenyl)-3-(3,4-dimethoxyphenyl)-1-morpholin-4-yl-propenone]", "values": [
      {"measurement": "Observed activity (% infection)", "setting": "Pyrenophora teres; 16 mg/l", "value": 0, "unit": "%"},
      {"measurement": "Observed activity (% infection)", "setting": "Puccinia recondita [1]; 1 mg/l", "value": 0, "unit": "%"}
    ]},
    {"compound": "CC1CCN(c2c(-c3c(F)cc(F)cc3F)c(Cl)nc3ncnn23)CC1", "note": "[5-chloro-7-(4-methylpiperidin-1-yl)-6-(2,4,6-trifluorophenyl)-[1,2,4]triazolo[1,5-a]pyrimidine, reference compound]", "values": [
      {"measurement": "Observed activity (% infection)", "setting": "Puccinia recondita [1]; 1 mg/l", "value": 0, "unit": "%"},
      {"measurement": "Observed activity (% infection)", "setting": "Botrytis cinerea; 4 mg/l", "value": 40, "unit": "%"}
    ]}
  ]
}
